Patent US12325696B2, “Indazole derivative, preparation method therefor, and pharmaceutical application thereof” (JIANGSU HENGRUI MEDICINE CO., LTD., priority 2019, dated 2025)

The molecules below were run against Nav1.5 ion channel (Homo sapiens (Human), UniProt Q14524) (assay: Manual patch clamp inhibition of Nav1.5 current in HEK293 cell). Details: whole-cell patch clamp, read-out: IC50 on inhibiting the Nav1.5 channel activity.
Format: cell-based
Method: The purpose of the experiment is to investigate the effect of the compounds on Nav1.5 ion channel in an […] experiment. Nav1.5 ion channel is stably expressed on HEK293 cell. After the Nav1.5 current becomes stable, the Nav1.5 currents before and after the administration of the compound are compared so as to obtain the effect of the compound on the Nav1.5 ion channel.
Extracellular fluid: NaCl, 137 mM; KCl, 4 mM; CaCl2), 1.8 mM; MgCl2, 1 mM; HEPES, 10; glucose, 10 mM; pH 7.4 (NaOH titration).
Intracellular fluid: aspartic acid, 140 mM; MgCl2, 2 mM; EGTA, 11 mM; HEPES, 10 mM; pH 7.2 (CsOH titration).
The test compound was dissolved in dimethyl sulfoxide (DMSO) at a stock concentration of 9 mM. The stock solution of the test compound was dissolved in the extracellular fluid on the day of the test and formulated into the required concentration.
1) The compound was formulated into solutions with specified concentrations. The solutions were added to the pipelines respectively in order from high to low concentration, and the pipelines were marked.
2) The cell was transferred to the perfusion tank, and perfused with the extracellular fluid. The intracellular fluid was stored in small batches in a −80° C. refrigerator, and melted on the day of the experiment. The electrode was pulled with PC-10 (Narishige, Japan). Recording was carried out with the whole-cell patch clamp, and the noise was filtered at one-fifth of the sampling frequency.
3) All compounds were perfused with a perfusion system that uses its own gravity. Each concentration was tested in at least two cells. After the current stabilized (or after 5 minutes), the blocking effect of the compound was calculated by comparing the changes in the current before and after the administration of the compound.
The cell was clamped at −80 mV. The cell was depolarized to Vhalf with a square wave lasting 8 milliseconds, hyperpolarized to −120 mV with a square wave lasting 20 milliseconds, and depolarized to −10 mV with a square wave lasting 20 milliseconds to obtain the Nav1.5 current. This procedure was repeated every 15 seconds. The maximum current caused by the −10 mV square wave was measured. After the current became stable, the test compound was perfused. After the response became stable, the blocking intensity was calculated.
The data was stored in the computer system for analysis. Data collection and analysis were carried out by pCLAMP 10 (Molecular Devices, Union City, CA). Stable current means that the absolute average value of the peak current of four consecutive scans exceeds 200 pA and the CV value is less than 10%, or the average value of the peak current of four consecutive scans is between 200 pA and 50 pA and the CV value is less than 30%. The average value of the last four current peaks after the current stabilized was used to calculate the effect of the compound at the concentration.

Sequence of Nav1.5 ion channel (Q14524 whole entry): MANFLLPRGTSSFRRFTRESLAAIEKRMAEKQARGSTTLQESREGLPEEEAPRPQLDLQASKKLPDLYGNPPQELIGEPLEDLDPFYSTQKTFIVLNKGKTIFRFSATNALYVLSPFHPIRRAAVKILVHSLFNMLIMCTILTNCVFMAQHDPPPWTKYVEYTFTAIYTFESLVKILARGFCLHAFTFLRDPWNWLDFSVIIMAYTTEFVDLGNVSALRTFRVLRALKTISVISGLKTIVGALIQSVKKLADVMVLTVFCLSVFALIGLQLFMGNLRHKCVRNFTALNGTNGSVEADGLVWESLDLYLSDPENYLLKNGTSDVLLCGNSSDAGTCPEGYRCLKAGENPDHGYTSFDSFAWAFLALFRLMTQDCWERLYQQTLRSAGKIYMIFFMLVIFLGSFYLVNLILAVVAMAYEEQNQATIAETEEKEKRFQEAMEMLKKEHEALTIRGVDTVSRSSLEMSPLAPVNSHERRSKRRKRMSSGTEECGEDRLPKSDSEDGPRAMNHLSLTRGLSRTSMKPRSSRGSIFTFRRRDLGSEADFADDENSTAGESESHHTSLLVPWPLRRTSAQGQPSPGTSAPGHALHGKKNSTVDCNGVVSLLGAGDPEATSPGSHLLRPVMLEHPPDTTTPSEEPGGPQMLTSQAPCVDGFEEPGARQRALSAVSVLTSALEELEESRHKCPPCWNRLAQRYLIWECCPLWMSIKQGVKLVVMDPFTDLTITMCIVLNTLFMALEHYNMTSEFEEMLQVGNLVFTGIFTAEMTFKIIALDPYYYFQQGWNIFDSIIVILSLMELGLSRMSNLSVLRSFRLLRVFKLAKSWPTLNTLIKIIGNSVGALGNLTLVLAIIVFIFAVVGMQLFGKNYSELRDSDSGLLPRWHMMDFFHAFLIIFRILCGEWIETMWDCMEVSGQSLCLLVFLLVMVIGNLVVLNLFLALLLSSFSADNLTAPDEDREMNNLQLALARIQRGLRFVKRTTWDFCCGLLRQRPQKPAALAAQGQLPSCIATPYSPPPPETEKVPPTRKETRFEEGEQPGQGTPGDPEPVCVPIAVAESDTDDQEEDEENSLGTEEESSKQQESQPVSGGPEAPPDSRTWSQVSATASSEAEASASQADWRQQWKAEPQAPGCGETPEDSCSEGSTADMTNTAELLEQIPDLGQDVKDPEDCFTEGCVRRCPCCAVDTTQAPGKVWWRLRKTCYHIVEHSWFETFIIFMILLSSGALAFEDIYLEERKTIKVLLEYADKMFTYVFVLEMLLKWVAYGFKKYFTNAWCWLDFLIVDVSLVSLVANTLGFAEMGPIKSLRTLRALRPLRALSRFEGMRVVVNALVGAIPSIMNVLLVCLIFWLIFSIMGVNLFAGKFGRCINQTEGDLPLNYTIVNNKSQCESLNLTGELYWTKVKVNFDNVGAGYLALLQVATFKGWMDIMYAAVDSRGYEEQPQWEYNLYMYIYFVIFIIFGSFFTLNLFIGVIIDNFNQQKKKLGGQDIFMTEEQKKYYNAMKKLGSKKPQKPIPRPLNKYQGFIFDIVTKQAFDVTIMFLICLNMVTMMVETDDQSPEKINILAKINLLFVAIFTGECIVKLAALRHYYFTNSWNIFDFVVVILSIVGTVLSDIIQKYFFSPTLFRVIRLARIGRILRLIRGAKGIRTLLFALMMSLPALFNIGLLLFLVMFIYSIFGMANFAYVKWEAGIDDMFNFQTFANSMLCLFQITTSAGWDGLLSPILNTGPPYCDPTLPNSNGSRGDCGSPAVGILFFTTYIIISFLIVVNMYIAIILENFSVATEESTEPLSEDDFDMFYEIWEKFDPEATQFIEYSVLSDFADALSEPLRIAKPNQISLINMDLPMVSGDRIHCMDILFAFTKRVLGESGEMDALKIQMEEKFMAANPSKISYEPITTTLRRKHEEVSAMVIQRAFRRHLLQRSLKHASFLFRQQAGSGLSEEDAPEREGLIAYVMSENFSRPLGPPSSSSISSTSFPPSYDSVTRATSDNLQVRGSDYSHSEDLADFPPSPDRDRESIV

Question: Which IC50 does the source give for `CN(C)C(=O)/C=C/CNC1(COc2ccc(/C(=C(/CC(F)(F)F)c3ccccc3)c3ccc4[nH]nc(F)c4c3)cn2)CC1` [Example 39, (E)-N,N-Dimethyl-4-((1-(((5-((Z)-4,4,4-trifluoro-1-(3-fluoro-1H-indazol-5-yl)-2-phenylbut-1-en-1-yl)pyridin-2-yl)oxy)methyl)cyclopropyl)amino)but-2-enamide] here?
Answer: 8.2 µM

Question: Which IC50 does the source give for `O=C(/C=C/CNC1(COc2ccc(/C(=C(/CC(F)(F)F)c3ccccc3)c3ccc4[nH]nc(F)c4c3)cn2)CC1)N1CCOCC1` [Example 1, (E)-1-Morpholino-4-((1-(((5-((Z)-4,4,4-trifluoro-1-(3-fluoro-1H-indazol-5-yl)-2-phenylbut-1-en-1-yl)pyridin-2-yl)oxy)methyl)cyclopropyl)amino)but-2-en-1-one] here?
Answer: > 10 µM

Question: With `O=C(/C=C/CNC1(COc2ccc(/C(=C(/CC(F)(F)F)c3ccccc3)c3ccc4[nH]nc(F)c4c3)cn2)CC1)N1CC[C@H](O)C1` [Example 41, (E)-1-((S)-3-Hydroxypyrrolidin-1-yl)-4-((1-(((5-((Z)-4,4,4-trifluoro-1-(3-fluoro-1H-indazol-5-yl)-2-phenylbut-1-en-1-yl)pyridin-2-yl)oxy)methyl)cyclopropyl)amino)but-2-en-1-one] as the molecule, how does the IC50 read?
Answer: 5.3 µM

Question: With `O=C(/C=C/CNC1(COc2ccc(/C(=C(/CC(F)(F)F)c3ccccc3)c3ccc4[nH]nc(F)c4c3)cn2)CC1)N1CC(O)C1` [Example 40, (E)-1-(3-Hydroxyazetidin-1-yl)-4-((1-(((5-((Z)-4,4,4-trifluoro-1-(3-fluoro-1H-indazol-5-yl)-2-phenylbut-1-en-1-yl)pyridin-2-yl)oxy)methyl)cyclopropyl)amino)but-2-en-1-one] as the molecule, how does the IC50 read?
Answer: 11.5 µM
